Assay results taken from patent US10918719B2, “Methods for cross-linking corneal collagen with verteporfin for the treatment of disorders of the eye” (Massachusetts Eye and Ear Infirmary, priority 2014, dated 2021).

How the values were obtained:
Human research corneas [1] = test: Creep testing under constant force of 15 N; settings: constant force 15 N, between 0 and 4.25 minutes; untreated −3.46
Protocol: The biomechanical properties of untreated corneas and corneas treated with R+UVA and V+NTL6 were measured using gross observation, compression, creep and tensile strength testing. The corneas were stored in Optisol GS and refrigerated at 4° C. until the time of testing. […] The sample was held under a constant force of 15 N and the strain was measured over a period of 4.25 minutes. Creep testing has been used to evaluate the biomechanical strength of tissue, such as the cornea, by applying a constant stress and monitoring the rate of deformation ^21In this study, cornea tissue was kept under a constant stress using a compression force of 15 N and then the slope of the strain-time curve was calculated between 0 and 4.25 minutes and represented the rate of tissue deformation.

[2] = test system: Human research corneas (corneal strips); test: Tensile strength testing (strip extensometry); settings: for maximum stress observed prior to failure: tensile test at 0.025 mm/sec until failure, untreated 3.02 (FIG. 8); for maximum modulus value (tensile): versus untreated corneas (FIG. 9B); for instantaneous modulus values at 4%, 6%, and 8% strain (toe region): versus untreated corneas (FIG. 11)
Protocol: (§1) The biomechanical properties of untreated corneas and corneas treated with R+UVA and V+NTL6 were measured using gross observation, compression, creep and tensile strength testing. The corneas were stored in Optisol GS and refrigerated at 4° C. until the time of testing.
A rectangular strip of corneal tissue (approximately 3 mm wide and 14 mm long) was cut from each sample with a scalpel. The corneal strips were individually clamped between the two jaws of a microcomputer-controlled biomaterial tester (Minimat, Rheometriv Scientific GmbH).^15-20 Tensile testing was performed using a Shimadzu AGS-X (Cambridge Polymer Group, Inc. 56 Roland St suite 310, Boston, Mass. 02129, United States) load frame equipped with a 50 N load cell and pneumatic grips, which were lined with sandpaper for prevent tissue slippage. The pneumatic grips compensated for any dimensional change as the samples were stretched and allowed a fixed grip pressure of 35 pressure per square inch (psi) to be applied. The initial grip separation was set to 4.5 mm and tested at a rate of 0.025 mm/sec until failure. The strain (ε) was then increased linearly at a certain velocity, and the relative stress (s) was measured.
In this study, strip extensometry was performed using rectangular strips of corneal tissue that was extracted from untreated and treated corneas. The maximum stress observed prior to failure, the maximum modulus values, and the instantaneous modulus values at specific strain percentages were calculated. The stress-strain data can be broadly separated into two regions: an initial toe region that covers strain values typically observed in vivo, and the region covering extreme deformations not likely to be observed in vivo.
Finally, the initial toe region of each sample group was compared. The stress-strain data was offset such that the sample length at a stress of 0.02 MPa was defined as 0% strain (this offset is equivalent to defining a pre-stress of […] at the start of the tensile test). A representative plot showing the toe region of the tensile data for one specimen from each sample group is shown in FIG. 10, and the instantaneous modulus values at 4%, 6%, and 8% strain for each sample group are shown in FIG. 11.

Human research corneas [3] = test: Compression testing (Q800 DMA), Young's modulus; settings: for slope of the stress-strain compression data versus untreated corneas: FIG. 5; for Young's modulus: linear fit of stress-strain curve between 0.08 and 0.10 MPa, untreated 0.43 MPa
Protocol: as §1
Compression testing was performed using a Q800 DMA (TA instruments). The tissue was placed within a submersion clamp and centered beneath a custom 8 mm diameter compression plate, as shown in FIG. 2. The submersion clamp was filled with 1× phosphate buffered saline (PBS) solution to prevent the sample from drying out during the test.
The elasticity of any tissue can be determined by measuring the stress (force on a cross-section point) and its relative strain (proportional deformation)^12,14. The Young's modulus is the proportion between the stress and strain values and reflects the elasticity of the tissue. A small Young's modulus value reflects more elasticity of a material and is represented in units of Newton/m^2.
Young's modulus was calculated as a linear fit of the final portion of the stress-strain curve, between stress values of 0.08 and 0.10 MPa (FIG. 6). Tissue treated by R+UVA and V+NTL6 had statistically larger moduli than untreated corneas. Corneas treated by V+NTL6 appeared to be slightly more stiff (0.80 vs 0.43 MPa, p<0.005) than those treated by R+UVA (0.70 vs 0.43 MPa, p<0.05), however this difference was not statistically significant.

[4] = test system: Human research corneas (de-epithelialized, 8.5-mm buttons) in collagenase A; test: Resistance to collagenase A digestion (time to total dissolution of cornea buttons); settings: 0.3% collagenase A, 37° C.; for time to dissolution in collagenase A: untreated corneas 5.47 ± 0.21 hours; for Collagenase time to dissolution: 150 rpm, ex vivo de-epithelialized corneas, n=5, mean ± SD
From the text: Human research corneas were obtained from Tissue Bank International (Baltimore, Md.) and North Carolina Eye Bank (Winston-Salem, N.C.). Riboflavin 5′-phosphate sodium salt hydrate, 20% (w/w) dextran solution (from Leuconostoc mesenteroides) and collagenase A (from Clostridium histolyticum, E.C. 3.4.24.3) were obtained from Sigma Aldrich (St. Louis, Mo.). Barron® artificial anterior chambers were purchased from Katena Eye Instruments (Denville, N.J.). The VEGA LED-based UV emitter was purchased from Costruzione Strumenti Oftalmici (Firenze, Italy). The Excells E24 incubator shaker series was purchased from New Brunswick Scientific (Enfield, Conn.).
The corneas were obtained in OptiZol® solution and stored at 4° C. until use. All experiments were performed within 2 weeks from the date of death of the donor. Each cornea was fitted into a Barron® artificial anterior chamber with normal balanced salt solution followed by mechanical removal of 8 mm of the central corneal epithelium with a blunt blade.
Conventional riboflavin-UVA (R+UVA) crosslinking was performed in an ex vivo fashion according to the Dresden protoco.^1-2 50 mg of riboflavin 5′-phosphate was added to 50 mL of dextran (w/w) and mixed thoroughly to make 0.1% riboflavin (1 mg/mL) solution. All solutions were covered in aluminum foil for protection from room UV light and stored at 4° C. until use. Riboflavin solution was topically administered every 5 minutes onto the surface of the de-epithelialized cornea for total instillation period of 30 minutes. UVA 370 nm light (X-Vega, Sooft SPA) was then focused onto the surface of the cornea at an irradiance of 3 mW/cm^2 (5.4 J/cm^2 fluence) for 5 minutes. The five-minute UVA exposure sequence was repeated 5 more times for a total UVA exposure time of 30 minutes. Prior to each 5-minute UVA treatment sequence, one drop of balanced salt solution and one drop of riboflavin were administered onto the surface of the cornea.
Each de-epithelialized cornea was placed on a Barron® artificial anterior chamber and underwent a treatment protocols (below) that included either topical verteporfin solution alone, non-thermal laser alone, or a combination of both topical verteporfin and non-thermal laser. Verteporfin solution was applied topically using the same formulation that is administered intravenously for the treatment of choroidal neovascularization^3-8 (6 mg/mL, Visudyne; Novartis Ophthalmics AG, Hettingen, Switzerland). A 689 nm wavelength non-thermal laser (Opal Photoactivator; Coherent Inc., Santa Clara, Calif.) was applied using a spot size of 7 mm at a power intensity of 600 mW/cm^2.
1. Topical verteporfin (V), without laser: Verteporfin solution was topically administered onto the surface of a de-epithelialized cornea every minute for 15 minutes. The tissue was not exposed to laser therapy.
3. Combined treatment of verteporfin with non-thermal laser for one treatment sequence (V+NTL-1): Verteporfin, which was prepared at a dose of 6 mg/ml (one drop per minute) was applied onto the de-epithelialized corneas every minute for fifteen minutes followed by one NTL treatment sequence. A 689 nm nonthermal laser light was delivered directly over a cornea with spot sizes (7 mm) at a power intensity of 600 mW/cm^2 for one minute only.
4. Combined treatment of Verteporfin with Non-Thermal Laser Therapy for six treatment sequences (V+NTL-6): Verteporfin solution (6 mg/ml) was topically applied every minute for fifteen minutes followed by six NTL sequences. One drop of balanced salt solution and one drop of verteporfin was administered between each treatment sequence. […]

Human research corneas [5] = test: Gross observation of corneal rigidity / curvature; settings: for rigidity on gross examination versus untreated corneas: cornea strips placed horizontally in a clamp (FIG. 3); for Gross observation: ex vivo treated corneas
Protocol: as §1
For example, when cornea strips were placed horizontally in a clamp, the tissue treated by V+NTL6 and by R+UVA were noted to have a more pronounced curvature than the untreated control group (FIG. 3).

time to dissolution in collagenase A ([4]; listed as riboflavin-UVA, sodium salt hydrate)	time to dissolution in collagenase A ([4]; sodium salt hydrate)	Collagenase time to dissolution [4]	time to dissolution in collagenase A [4]	Collagenase time to dissolution ([4]; listed as V-NLT-1)	Collagenase time to dissolution ([4]; listed as V-NLT-6)	Molecule	creep rate (slope of the strain-time curve) (Human research corneas [1])	maximum stress observed prior to failure [2]	maximum modulus value (tensile) [2]	instantaneous modulus values at 4%, 6%, and 8% strain (toe region) [2]	slope of the stress-strain compression data versus untreated corneas (Human research corneas [3])	Young's modulus (Human research corneas [3])	rigidity on gross examination versus untreated corneas (Human research corneas [5])	Gross observation (Human research corneas [5])	Gross observation (Human research corneas [5]; listed as V-NLT-1)	Gross observation (Human research corneas [5]; listed as V-NLT-6)
20.06 ± 1.23 h	20.06 h	–	–	–	–	Cc1cc2nc3c(=O)[nH]c(=O)nc-3n(C[C@H](O)[C@H](O)[C@H](O)COP(=O)([O-])O)c2cc1C.[Na+] [R+UVA, Riboflavin 5′-phosphate sodium salt hydrate]	faster creep rate, but the difference was not statistically significant	larger stress values prior to failure	statistically larger maximum modulus values than untreated corneas	no statistically significant difference was observed	steeper	0.70 MPa	much more rigidity than untreated corneas	–	–	–
–	–	5.95 ± 0.33 h	5.95 h	–	–	verteporfin	–	–	–	–	–	–	–	No rigidity	–	–
–	–	–	5.96 ± 0.39 h	5.96 ± 0.39 h	–	verteporfin [V+NTL1]	–	–	–	–	–	–	–	–	No rigidity	–
–	–	–	19.75 ± 0.95 h	–	19.75 ± 0.95 h	verteporfin [V+NTL6]	−1.87	7.67	statistically larger maximum modulus values than untreated corneas	statistically larger modulus values than untreated corneas	steeper	0.80 MPa	much more rigidity than untreated corneas	–	–	Cornea rigid
